Experimental data as given in patent publication US20020106416A1, “Composition for inhibition of H. influenzae and treatment of otitis media and sore throat” (priority 1996, published 2002).

assay: Clinical evaluation of HHT888-10 in patients with otitis media or sore throat; assay type: in vivo, human; conditions: sixth patient; initial treatment with Erythromycin, Bactrium, and Naproxen together
Description: The extract powder prepared in Example IB of Pogostemon cablin (HHT888-10) was administered orally to a patient with recurrent otitis media at a dosage of 2 g twice a day ( total 4 gms per day) for 3 days.
A sixth patient was treated for sore throat, headache and fever. […] On the fifth day, the patient was treated with HHT888-10 at 2 g b.i.d. p.o. for 2 days.

Row | Compound | fever and headache | sore throat
1 | Bactrium | subsided | became worse
2 | COc1ccc2cc([C@H](C)C(=O)O)ccc2c1 [Naproxen] | subsided | became worse
3 | CC[C@H]1OC(=O)[C@H](C)[C@@H](O[C@H]2C[C@@](C)(OC)[C@@H](O)[C@H](C)O2)[C@H](C)[C@@H](O[C@@H]2O[C@H](C)C[C@H](N(C)C)[C@H]2O)[C@](C)(O)C[C@@H](C)C(=O)[C@H](C)[C@@H](O)[C@]1(C)O [Erythromycin] | subsided | became worse
